Measurements from the kinase profiling compilation of Christmann-Franck et al. (2016).

What was measured:
Conditions in all cases: compound 10.0 µM
[1] = target: ACVR2A (human) (UniProt P27037)
[2] = target: BRSK1 (human) (UniProt Q8TDC3)
[3] = target: CAMK2G (human) (UniProt Q13555)
[4] = target: CAMK4 (human) (UniProt Q16566)
[5] = target: CAMKK1 (human) (UniProt Q8N5S9)
[6] = target: CDK11B (human) (UniProt P21127)
[7] = target: CDK13 (human) (UniProt Q14004)
[8] = target: CDK16 (human) (UniProt Q00536)
[9] = target: CDK3 (human) (UniProt Q00526)
[10] = target: CDKL2 (human) (UniProt Q92772)
[11] = target: CSNK1E (human) (UniProt P49674)
[12] = target: CSNK1G2 (human) (UniProt P78368)
[13] = target: CSNK1G3 (human) (UniProt Q9Y6M4)
[14] = target: DCLK3 (human) (UniProt Q9C098)
[15] = target: DSTYK (human) (UniProt Q6XUX3)
[16] = system: EIF2AK4 KD2 (human), Q9P2K8 [S808G]
[17] = target: EPHB6 (human) (UniProt O15197)
[18] = target: FLT1 (human) (UniProt P17948)
[19] = target: GSK3A (human) (UniProt P49840)
[20] = target: JAK2 JH1 catalytic (human) (UniProt O60674)
[21] = target: JAK3 JH1 catalytic (human) (UniProt P52333)
[22] = target: KIT (human) (UniProt P10721)
[23] = system: LRRK2 (human), Q5S007 [G2019S]
[24] = target: MAP2K6 (human) (UniProt P52564)
[25] = target: MYLK4 (human) (UniProt Q86YV6)
[26] = target: NEK6 (human) (UniProt Q9HC98)
[27] = target: PHKG2 (human) (UniProt P15735)
[28] = target: PKN2 (human) (UniProt Q16513)
[29] = target: PLK1 (human) (UniProt P53350)
[30] = target: PRKCQ (human) (UniProt Q04759)
[31] = target: PRKX (human) (UniProt P51817)
[32] = target: SGK110 (human) (UniProt P0C264)
[33] = target: SRPK3 (human) (UniProt Q9UPE1)
[34] = target: STK25 (human) (UniProt O00506)
[35] = target: STK38 (human) (UniProt Q15208)
[36] = target: STK4 (human) (UniProt Q13043)
[37] = target: TAOK2 (human) (UniProt Q9UL54)
[38] = target: TAOK3 (human) (UniProt Q9H2K8)
[39] = target: TEC (human) (UniProt P42680)
[40] = target: TNIK (human) (UniProt Q9UKE5)
[41] = target: VRK2 (human) (UniProt Q86Y07)

Sequence of JAK2 JH1 catalytic (human) (O60674 whole entry, looked up): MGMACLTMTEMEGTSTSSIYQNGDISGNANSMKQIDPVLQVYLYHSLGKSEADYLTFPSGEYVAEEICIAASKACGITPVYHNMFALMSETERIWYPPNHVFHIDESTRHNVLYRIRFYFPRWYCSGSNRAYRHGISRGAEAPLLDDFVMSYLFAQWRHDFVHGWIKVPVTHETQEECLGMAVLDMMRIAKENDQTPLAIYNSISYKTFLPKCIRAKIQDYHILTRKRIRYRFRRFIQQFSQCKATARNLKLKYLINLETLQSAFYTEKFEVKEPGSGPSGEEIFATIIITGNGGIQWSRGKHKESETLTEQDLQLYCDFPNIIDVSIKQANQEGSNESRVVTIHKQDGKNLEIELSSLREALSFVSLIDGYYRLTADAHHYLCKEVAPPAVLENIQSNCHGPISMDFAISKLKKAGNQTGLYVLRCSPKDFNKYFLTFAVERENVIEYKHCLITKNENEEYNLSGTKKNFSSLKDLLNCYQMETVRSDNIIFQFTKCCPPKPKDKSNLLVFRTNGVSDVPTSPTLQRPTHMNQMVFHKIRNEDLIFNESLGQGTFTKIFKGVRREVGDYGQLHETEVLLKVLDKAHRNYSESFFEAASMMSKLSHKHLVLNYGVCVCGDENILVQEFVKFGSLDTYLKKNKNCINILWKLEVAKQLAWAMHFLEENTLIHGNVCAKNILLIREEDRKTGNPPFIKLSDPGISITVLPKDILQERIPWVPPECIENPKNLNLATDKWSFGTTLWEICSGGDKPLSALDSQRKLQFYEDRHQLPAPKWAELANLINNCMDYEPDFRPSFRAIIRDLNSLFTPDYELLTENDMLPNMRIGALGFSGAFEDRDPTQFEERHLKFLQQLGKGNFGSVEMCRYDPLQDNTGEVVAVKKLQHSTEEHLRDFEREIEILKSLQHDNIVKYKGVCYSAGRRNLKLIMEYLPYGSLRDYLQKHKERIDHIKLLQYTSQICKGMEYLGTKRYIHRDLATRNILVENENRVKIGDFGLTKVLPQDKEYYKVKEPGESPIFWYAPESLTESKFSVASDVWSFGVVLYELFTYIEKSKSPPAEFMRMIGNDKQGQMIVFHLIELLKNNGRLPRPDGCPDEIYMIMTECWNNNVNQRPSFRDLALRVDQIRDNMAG
Sequence of DSTYK (human) (Q6XUX3 whole entry, looked up): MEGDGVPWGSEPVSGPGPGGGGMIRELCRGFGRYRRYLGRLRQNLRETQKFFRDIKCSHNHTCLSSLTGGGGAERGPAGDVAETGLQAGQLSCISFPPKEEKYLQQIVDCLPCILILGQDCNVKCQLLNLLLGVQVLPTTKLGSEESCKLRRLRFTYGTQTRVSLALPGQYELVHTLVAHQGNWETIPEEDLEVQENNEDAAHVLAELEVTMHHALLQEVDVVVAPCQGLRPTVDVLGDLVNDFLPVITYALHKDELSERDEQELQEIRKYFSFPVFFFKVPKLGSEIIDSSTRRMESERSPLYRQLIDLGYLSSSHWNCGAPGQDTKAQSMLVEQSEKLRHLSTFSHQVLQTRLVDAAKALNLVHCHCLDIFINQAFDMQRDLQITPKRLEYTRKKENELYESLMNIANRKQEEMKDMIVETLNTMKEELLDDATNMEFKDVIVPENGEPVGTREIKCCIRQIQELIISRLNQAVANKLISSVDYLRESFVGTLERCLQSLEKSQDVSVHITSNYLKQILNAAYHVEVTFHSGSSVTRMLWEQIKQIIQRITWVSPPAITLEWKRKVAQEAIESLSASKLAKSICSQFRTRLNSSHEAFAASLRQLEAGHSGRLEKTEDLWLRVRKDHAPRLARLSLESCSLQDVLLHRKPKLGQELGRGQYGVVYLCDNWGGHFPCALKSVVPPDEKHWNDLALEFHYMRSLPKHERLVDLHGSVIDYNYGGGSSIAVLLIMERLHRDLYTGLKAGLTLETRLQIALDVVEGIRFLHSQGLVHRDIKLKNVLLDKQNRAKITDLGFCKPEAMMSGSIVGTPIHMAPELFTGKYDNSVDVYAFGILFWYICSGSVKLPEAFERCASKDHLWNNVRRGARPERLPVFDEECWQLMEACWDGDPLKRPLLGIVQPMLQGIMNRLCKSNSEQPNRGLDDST
Sequence of STK4 (human) (Q13043 whole entry, looked up): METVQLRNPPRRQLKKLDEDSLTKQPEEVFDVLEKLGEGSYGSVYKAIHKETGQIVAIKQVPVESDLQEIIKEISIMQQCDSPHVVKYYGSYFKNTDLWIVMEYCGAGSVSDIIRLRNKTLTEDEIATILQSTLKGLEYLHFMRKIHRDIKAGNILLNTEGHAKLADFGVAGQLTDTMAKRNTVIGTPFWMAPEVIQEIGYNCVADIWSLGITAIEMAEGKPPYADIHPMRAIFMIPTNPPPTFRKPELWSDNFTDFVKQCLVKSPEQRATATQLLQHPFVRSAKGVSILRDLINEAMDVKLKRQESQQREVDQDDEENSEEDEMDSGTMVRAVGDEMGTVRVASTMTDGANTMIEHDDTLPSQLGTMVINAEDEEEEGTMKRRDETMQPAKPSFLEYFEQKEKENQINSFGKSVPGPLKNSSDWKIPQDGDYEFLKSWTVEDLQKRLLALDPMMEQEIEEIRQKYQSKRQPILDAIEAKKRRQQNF
Sequence of STK25 (human) (O00506 whole entry, looked up): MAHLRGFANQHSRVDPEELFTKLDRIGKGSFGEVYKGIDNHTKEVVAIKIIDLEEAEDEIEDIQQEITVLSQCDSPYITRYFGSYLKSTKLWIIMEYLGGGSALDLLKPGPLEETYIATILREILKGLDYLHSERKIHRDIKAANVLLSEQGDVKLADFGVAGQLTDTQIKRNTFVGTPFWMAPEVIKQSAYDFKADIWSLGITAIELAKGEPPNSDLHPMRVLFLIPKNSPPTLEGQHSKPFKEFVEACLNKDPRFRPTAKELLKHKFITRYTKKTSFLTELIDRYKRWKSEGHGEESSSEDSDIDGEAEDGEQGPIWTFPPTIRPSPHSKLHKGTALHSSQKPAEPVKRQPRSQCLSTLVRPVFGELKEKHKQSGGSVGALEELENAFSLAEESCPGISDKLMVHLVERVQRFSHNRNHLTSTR
Sequence of CAMK4 (human) (Q16566 whole entry, looked up): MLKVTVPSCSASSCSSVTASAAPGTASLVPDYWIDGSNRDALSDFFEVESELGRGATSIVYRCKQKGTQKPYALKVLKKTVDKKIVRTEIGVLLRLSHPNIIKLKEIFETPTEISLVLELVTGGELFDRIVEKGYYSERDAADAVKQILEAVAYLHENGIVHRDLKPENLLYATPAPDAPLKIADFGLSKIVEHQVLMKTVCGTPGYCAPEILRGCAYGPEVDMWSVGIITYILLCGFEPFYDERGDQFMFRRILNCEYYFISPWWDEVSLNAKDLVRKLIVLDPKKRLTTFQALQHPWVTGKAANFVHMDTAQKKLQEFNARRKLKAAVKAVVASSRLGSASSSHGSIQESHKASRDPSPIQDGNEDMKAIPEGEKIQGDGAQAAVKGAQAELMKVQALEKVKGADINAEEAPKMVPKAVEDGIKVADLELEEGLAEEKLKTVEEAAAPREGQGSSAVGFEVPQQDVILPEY
Sequence of EPHB6 (human) (O15197 whole entry, looked up): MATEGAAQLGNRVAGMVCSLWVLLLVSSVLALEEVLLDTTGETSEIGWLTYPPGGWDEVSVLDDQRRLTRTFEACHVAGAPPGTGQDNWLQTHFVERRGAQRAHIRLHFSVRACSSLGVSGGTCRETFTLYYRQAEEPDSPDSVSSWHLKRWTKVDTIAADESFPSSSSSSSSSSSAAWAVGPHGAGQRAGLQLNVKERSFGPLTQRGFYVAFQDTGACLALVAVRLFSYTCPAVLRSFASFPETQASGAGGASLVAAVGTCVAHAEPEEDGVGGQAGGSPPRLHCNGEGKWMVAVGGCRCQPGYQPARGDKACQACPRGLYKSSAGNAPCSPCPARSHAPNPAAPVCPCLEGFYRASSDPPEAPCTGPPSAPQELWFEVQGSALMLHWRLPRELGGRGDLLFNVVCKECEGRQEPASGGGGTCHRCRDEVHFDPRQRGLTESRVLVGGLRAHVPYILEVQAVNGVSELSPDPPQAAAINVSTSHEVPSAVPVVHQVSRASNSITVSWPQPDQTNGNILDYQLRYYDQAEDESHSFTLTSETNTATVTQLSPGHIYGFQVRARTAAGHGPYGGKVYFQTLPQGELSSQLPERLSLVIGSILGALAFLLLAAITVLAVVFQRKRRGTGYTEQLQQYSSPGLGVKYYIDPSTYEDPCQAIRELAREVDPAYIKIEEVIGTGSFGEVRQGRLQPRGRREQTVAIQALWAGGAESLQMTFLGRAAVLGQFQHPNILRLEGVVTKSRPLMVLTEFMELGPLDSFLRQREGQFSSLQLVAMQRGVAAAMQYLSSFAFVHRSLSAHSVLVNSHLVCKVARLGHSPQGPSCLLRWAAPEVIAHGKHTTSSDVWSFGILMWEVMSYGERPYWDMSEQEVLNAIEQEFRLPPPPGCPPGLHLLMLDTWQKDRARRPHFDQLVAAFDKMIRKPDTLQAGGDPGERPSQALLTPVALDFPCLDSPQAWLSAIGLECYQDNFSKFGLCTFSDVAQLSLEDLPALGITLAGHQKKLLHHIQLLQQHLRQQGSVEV
Sequence of SRPK3 (human) (Q9UPE1 whole entry, looked up): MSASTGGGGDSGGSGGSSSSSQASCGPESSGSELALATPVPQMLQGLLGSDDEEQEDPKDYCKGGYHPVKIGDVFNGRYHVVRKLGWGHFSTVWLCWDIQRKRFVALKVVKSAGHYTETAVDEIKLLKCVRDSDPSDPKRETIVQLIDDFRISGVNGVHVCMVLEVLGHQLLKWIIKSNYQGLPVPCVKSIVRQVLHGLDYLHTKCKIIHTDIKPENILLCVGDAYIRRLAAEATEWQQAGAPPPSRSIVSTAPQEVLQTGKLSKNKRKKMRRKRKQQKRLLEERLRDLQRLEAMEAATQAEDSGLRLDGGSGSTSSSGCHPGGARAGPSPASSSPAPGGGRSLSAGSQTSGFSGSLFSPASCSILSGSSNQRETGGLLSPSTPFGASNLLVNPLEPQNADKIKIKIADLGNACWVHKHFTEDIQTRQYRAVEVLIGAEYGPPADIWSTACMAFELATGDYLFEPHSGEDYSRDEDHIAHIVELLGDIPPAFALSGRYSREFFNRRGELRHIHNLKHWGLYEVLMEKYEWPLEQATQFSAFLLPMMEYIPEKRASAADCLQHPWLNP

CNC(=O)c1cc(Oc2ccc(NC(=O)Nc3ccc(Cl)c(C(F)(F)F)c3)cc2)ccn1
per cent of control [1]: 100% | per cent of control [2]: 100% | per cent of control [3]: 100% | per cent of control [4]: 42% | per cent of control [5]: 100% | per cent of control [6]: 93% | per cent of control [7]: 98% | per cent of control [8]: 68% | per cent of control [9]: 41% | per cent of control [10]: 0.05% | per cent of control [11]: 99% | per cent of control [12]: 100% | per cent of control [13]: 100% | per cent of control [14]: 100% | per cent of control [15]: 100% | per cent of control [16]: 60% | per cent of control [17]: 2.4% | per cent of control [18]: 0.7% | per cent of control [19]: 100% | per cent of control [20]: 70% | per cent of control [21]: 100% | per cent of control [22]: 0% | per cent of control [23]: 62% | per cent of control [24]: 73% | per cent of control [25]: 88% | per cent of control [26]: 100% | per cent of control [27]: 100% | per cent of control [28]: 100% | per cent of control [29]: 100% | per cent of control [30]: 76% | per cent of control [31]: 98% | per cent of control [32]: 91% | per cent of control [33]: 84% | per cent of control [34]: 100% | per cent of control [35]: 100% | per cent of control [36]: 96% | per cent of control [37]: 0.65% | per cent of control [38]: 0.65% | per cent of control [39]: 100% | per cent of control [40]: 21% | per cent of control [41]: 100%

CNC(=O)c1cc(Oc2ccc(NC(=O)Nc3ccc(Cl)c(C(F)(F)F)c3)cc2)cc[n+]1[O-]
per cent of control [1]: 89% | per cent of control [2]: 76% | per cent of control [3]: 96% | per cent of control [4]: 54% | per cent of control [5]: 79% | per cent of control [6]: 100% | per cent of control [7]: 40% | per cent of control [8]: 19% | per cent of control [9]: 13% | per cent of control [10]: 0.1% | per cent of control [11]: 100% | per cent of control [12]: 100% | per cent of control [13]: 96% | per cent of control [14]: 100% | per cent of control [15]: 68% | per cent of control [16]: 70% | per cent of control [17]: 1.8% | per cent of control [18]: 0.65% | per cent of control [19]: 100% | per cent of control [20]: 68% | per cent of control [21]: 78% | per cent of control [22]: 0% | per cent of control [23]: 64% | per cent of control [24]: 55% | per cent of control [25]: 100% | per cent of control [26]: 100% | per cent of control [27]: 100% | per cent of control [28]: 91% | per cent of control [29]: 100% | per cent of control [30]: 80% | per cent of control [31]: 100% | per cent of control [32]: 100% | per cent of control [33]: 86% | per cent of control [34]: 32% | per cent of control [35]: 100% | per cent of control [36]: 42% | per cent of control [37]: 8% | per cent of control [38]: 0.4% | per cent of control [39]: 68% | per cent of control [40]: 3.9% | per cent of control [41]: 100%
